Earlier results as cited in patent US20130202706A1 (DRUGGABILITY TECHNOLOGIES IP HOLDCO (JERSEY) LTD., priority 2010, published 2013).

Settings: oral administration

systemic availability of HMG-CoA reductase inhibitory activity: approximately 30%
SMILES: CC(C)c1c(C(=O)Nc2ccccc2)c(-c2ccccc2)c(-c2ccc(F)cc2)n1CC[C@@H](O)C[C@@H](O)CC(=O)O [Atorvastatin]
